Reference: the supplement of paper PMC8671470

tested on: K-562; test: cell viability (% survival relative to DMSO control, bortezomib = 0%); higher = less cytotoxic; conditions: 100 nM; 72 h
Summary of the method: (§1)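 Seeding density for each of the 10 AML and 5 CML cell lines was titrated to the linear growth range. Cells went into 384-well plates pre-printed in duplicate with compounds at 1, 10, 100, 1000 or 10000 nM and were held for 72 h at 37 °C with 5% CO2. CellTiter-Glo luminescence then provided the readout. Percent survival is expressed relative to vehicle at 100% and a 10 µM positive control at 0%, averaged over duplicates.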

Structure (SMILES) | cell viability [%]
CN(C)C(=N)NC(=N)N [Metformin] | 97.5
Cl.OC[C@H]1NC[C@H](O)[C@@H](O)[C@H]1O [Migalastat] | 107
OCCN1C[C@H](O)[C@@H](O)[C@H](O)[C@H]1CO [Miglitol] | 83.5
CCCCCCCCCCCCC/C=C/[C@@H](O)[C@H](CO)N(C)C [N,N-Dimethylsphingosine] | 103
CCCCCCCNC=O [N-Heptyl-Formamide] | 99

same assay, conditions: 1000 nM; 72 h

Structure (SMILES) | cell viability [%]
O=C(Oc1ccc([N+](=O)[O-])cc1)N1CCC(C(O)(c2ccc3c(c2)OCO3)c2ccc3c(c2)OCO3)CC1 [JZL184] | 87
O=C1N[C@@H]2[C@@H](O)[C@@H](O)[C@H](O)[C@@H](CO)N2C1=O [Kifunensine] | 87.6
CC(C)(CCCCCCCCCCC(C)(C)CC(=O)O)CC(=O)O [MEDICA 16] | 96.8
Cc1nnc(-c2ccc(N3CCC(Oc4ccccc4C(F)(F)F)CC3)nn2)s1 [MF-438] | 38.2
CC(C)c1ccc2c(c1)c(SC(C)(C)C)c(CC(C)(C)C(=O)O)n2Cc1ccc(Cl)cc1 [MK-886] | 100
O=C(CCl)N(CCCNC(=O)C(F)(F)F)c1ccc([N+](=O)[O-])cc1 [ML175] | 95.7
CN(C)C(=N)NC(=N)N [Metformin] | 103
Cl.OC[C@H]1NC[C@H](O)[C@@H](O)[C@H]1O [Migalastat] | 101
OCCN1C[C@H](O)[C@@H](O)[C@H](O)[C@H]1CO [Miglitol] | 108
CCCCCCCCCCCCC/C=C/[C@@H](O)[C@H](CO)N(C)C [N,N-Dimethylsphingosine] | 104
CCCCCCCNC=O [N-Heptyl-Formamide] | 122

same assay, conditions: 10000 nM; 72 h

Structure (SMILES) | cell viability [%]
O=C(Oc1ccc([N+](=O)[O-])cc1)N1CCC(C(O)(c2ccc3c(c2)OCO3)c2ccc3c(c2)OCO3)CC1 [JZL184] | 95.7
O=C1N[C@@H]2[C@@H](O)[C@@H](O)[C@H](O)[C@@H](CO)N2C1=O [Kifunensine] | 107
CC(C)(CCCCCCCCCCC(C)(C)CC(=O)O)CC(=O)O [MEDICA 16] | 117
Cc1nnc(-c2ccc(N3CCC(Oc4ccccc4C(F)(F)F)CC3)nn2)s1 [MF-438] | 38.1
CC(C)c1ccc2c(c1)c(SC(C)(C)C)c(CC(C)(C)C(=O)O)n2Cc1ccc(Cl)cc1 [MK-886] | 106
O=C(CCl)N(CCCNC(=O)C(F)(F)F)c1ccc([N+](=O)[O-])cc1 [ML175] | -0.364
CN(C)C(=N)NC(=N)N [Metformin] | 91.1
Cl.OC[C@H]1NC[C@H](O)[C@@H](O)[C@H]1O [Migalastat] | 99.1
OCCN1C[C@H](O)[C@@H](O)[C@H](O)[C@H]1CO [Miglitol] | 102
CCCCCCCCCCCCC/C=C/[C@@H](O)[C@H](CO)N(C)C [N,N-Dimethylsphingosine] | 85.6
CCCCCCCNC=O [N-Heptyl-Formamide] | 96.3

tested on: MOLM-13; test: as above; conditions: 1 nM; 72 h
Summary of the method: as §1

Structure (SMILES) | cell viability [%]
O=C(Oc1ccc([N+](=O)[O-])cc1)N1CCC(C(O)(c2ccc3c(c2)OCO3)c2ccc3c(c2)OCO3)CC1 [JZL184] | 92.2
O=C1N[C@@H]2[C@@H](O)[C@@H](O)[C@H](O)[C@@H](CO)N2C1=O [Kifunensine] | 76.3
CC(C)(CCCCCCCCCCC(C)(C)CC(=O)O)CC(=O)O [MEDICA 16] | 113
Cc1nnc(-c2ccc(N3CCC(Oc4ccccc4C(F)(F)F)CC3)nn2)s1 [MF-438] | 63.7
CC(C)c1ccc2c(c1)c(SC(C)(C)C)c(CC(C)(C)C(=O)O)n2Cc1ccc(Cl)cc1 [MK-886] | 89
O=C(CCl)N(CCCNC(=O)C(F)(F)F)c1ccc([N+](=O)[O-])cc1 [ML175] | 89.5
CN(C)C(=N)NC(=N)N [Metformin] | 105
Cl.OC[C@H]1NC[C@H](O)[C@@H](O)[C@H]1O [Migalastat] | 83.6
OCCN1C[C@H](O)[C@@H](O)[C@H](O)[C@H]1CO [Miglitol] | 92.1
CCCCCCCCCCCCC/C=C/[C@@H](O)[C@H](CO)N(C)C [N,N-Dimethylsphingosine] | 97.3
CCCCCCCNC=O [N-Heptyl-Formamide] | 113

same assay, conditions: 10 nM; 72 h

Structure (SMILES) | cell viability [%]
O=C(Oc1ccc([N+](=O)[O-])cc1)N1CCC(C(O)(c2ccc3c(c2)OCO3)c2ccc3c(c2)OCO3)CC1 [JZL184] | 100
O=C1N[C@@H]2[C@@H](O)[C@@H](O)[C@H](O)[C@@H](CO)N2C1=O [Kifunensine] | 105
CC(C)(CCCCCCCCCCC(C)(C)CC(=O)O)CC(=O)O [MEDICA 16] | 97.1
Cc1nnc(-c2ccc(N3CCC(Oc4ccccc4C(F)(F)F)CC3)nn2)s1 [MF-438] | 86.7
CC(C)c1ccc2c(c1)c(SC(C)(C)C)c(CC(C)(C)C(=O)O)n2Cc1ccc(Cl)cc1 [MK-886] | 103
O=C(CCl)N(CCCNC(=O)C(F)(F)F)c1ccc([N+](=O)[O-])cc1 [ML175] | 115
CN(C)C(=N)NC(=N)N [Metformin] | 91.5
Cl.OC[C@H]1NC[C@H](O)[C@@H](O)[C@H]1O [Migalastat] | 89.2
OCCN1C[C@H](O)[C@@H](O)[C@H](O)[C@H]1CO [Miglitol] | 91.3
CCCCCCCCCCCCC/C=C/[C@@H](O)[C@H](CO)N(C)C [N,N-Dimethylsphingosine] | 96.5
CCCCCCCNC=O [N-Heptyl-Formamide] | 98.3

same assay, conditions: 100 nM; 72 h

Structure (SMILES) | cell viability [%]
O=C(Oc1ccc([N+](=O)[O-])cc1)N1CCC(C(O)(c2ccc3c(c2)OCO3)c2ccc3c(c2)OCO3)CC1 [JZL184] | 117
O=C1N[C@@H]2[C@@H](O)[C@@H](O)[C@H](O)[C@@H](CO)N2C1=O [Kifunensine] | 117
CC(C)(CCCCCCCCCCC(C)(C)CC(=O)O)CC(=O)O [MEDICA 16] | 107
Cc1nnc(-c2ccc(N3CCC(Oc4ccccc4C(F)(F)F)CC3)nn2)s1 [MF-438] | 33.9
CC(C)c1ccc2c(c1)c(SC(C)(C)C)c(CC(C)(C)C(=O)O)n2Cc1ccc(Cl)cc1 [MK-886] | 88.9
O=C(CCl)N(CCCNC(=O)C(F)(F)F)c1ccc([N+](=O)[O-])cc1 [ML175] | 92.4
CN(C)C(=N)NC(=N)N [Metformin] | 117
Cl.OC[C@H]1NC[C@H](O)[C@@H](O)[C@H]1O [Migalastat] | 104
OCCN1C[C@H](O)[C@@H](O)[C@H](O)[C@H]1CO [Miglitol] | 93
CCCCCCCCCCCCC/C=C/[C@@H](O)[C@H](CO)N(C)C [N,N-Dimethylsphingosine] | 86.2
CCCCCCCNC=O [N-Heptyl-Formamide] | 89.9

same assay, conditions: 1000 nM; 72 h

Structure (SMILES) | cell viability [%]
O=C(Oc1ccc([N+](=O)[O-])cc1)N1CCC(C(O)(c2ccc3c(c2)OCO3)c2ccc3c(c2)OCO3)CC1 [JZL184] | 107
O=C1N[C@@H]2[C@@H](O)[C@@H](O)[C@H](O)[C@@H](CO)N2C1=O [Kifunensine] | 81.3
CC(C)(CCCCCCCCCCC(C)(C)CC(=O)O)CC(=O)O [MEDICA 16] | 79.4
Cc1nnc(-c2ccc(N3CCC(Oc4ccccc4C(F)(F)F)CC3)nn2)s1 [MF-438] | 41.3
CC(C)c1ccc2c(c1)c(SC(C)(C)C)c(CC(C)(C)C(=O)O)n2Cc1ccc(Cl)cc1 [MK-886] | 85.3
